According to ChEMBL document CHEMBL5724806, “Unraveling interindividual differences and functional consequences of gut microbial metabolism of immunosuppressants” (2024):

Assays:
Type in all cases: ADME
[1] = (§1) The drug is tested on Bifidobacterium adolescentis strain: DSM20083 for biotransformation under anaerobic condition. The drug concentrations were measured over 6 timepoints collected between 0 and 12 hours of incubation by liquid-chromatography-coupled mass spectrometry (LC–MS); design: dose 5 uM, timepoint 0, 1.5, 3, 6, 9, 12 hours; conditions: 5 µM
[2] = The drug is tested on Bacteroides stercoris strain: HM 1036 for biotransformation under anaerobic condition. The drug concentrations were measured over 6 timepoints collected between 0 and 12 hours of incubation by liquid-chromatography-coupled mass spectrometry (LC–MS); design: dose 5 uM, timepoint 0, 1.5, 3, 6, 9, 12 hours; conditions: 5 µM
[3] = The drug is tested on Bacteroides thetaiotaomicron strain: DSM2079 for biotransformation under anaerobic condition. The drug concentrations were measured over 6 timepoints collected between 0 and 12 hours of incubation by liquid-chromatography-coupled mass spectrometry (LC–MS); design: dose 5 uM, timepoint 0, 1.5, 3, 6, 9, 12 hours; conditions: 5 µM
[4] = The drug is tested on Capnocytophaga ochracea strain: DSM7271 for biotransformation under anaerobic condition. The drug concentrations were measured over 6 timepoints collected between 0 and 12 hours of incubation by liquid-chromatography-coupled mass spectrometry (LC–MS); design: dose 5 uM, timepoint 0, 1.5, 3, 6, 9, 12 hours; conditions: 5 µM
[5] = The drug is tested on Parabacteroides distasonis strain: DSM20701 for biotransformation under anaerobic condition. The drug concentrations were measured over 6 timepoints collected between 0 and 12 hours of incubation by liquid-chromatography-coupled mass spectrometry (LC–MS); design: dose 5 uM, timepoint 0, 1.5, 3, 6, 9, 12 hours; conditions: 5 µM
[6] = The drug is tested on Parabacteroides merdae strain: DSM19495 for biotransformation under anaerobic condition. The drug concentrations were measured over 6 timepoints collected between 0 and 12 hours of incubation by liquid-chromatography-coupled mass spectrometry (LC–MS); design: dose 5 uM, timepoint 0, 1.5, 3, 6, 9, 12 hours; conditions: 5 µM
[7] = The drug is tested on Prevotella copri strain: DSM18205 for biotransformation under anaerobic condition. The drug concentrations were measured over 6 timepoints collected between 0 and 12 hours of incubation by liquid-chromatography-coupled mass spectrometry (LC–MS); design: dose 5 uM, timepoint 0, 1.5, 3, 6, 9, 12 hours; conditions: segatella copri, 5 µM
[8] = The drug is tested on Faecalibacterium prausnitzii strain: DSM17677 for biotransformation under anaerobic condition. The drug concentrations were measured over 6 timepoints collected between 0 and 12 hours of incubation by liquid-chromatography-coupled mass spectrometry (LC–MS); design: dose 5 uM, timepoint 0, 1.5, 3, 6, 9, 12 hours; conditions: faecalibacterium duncaniae, 5 µM
[9] = The drug is tested on Lactobacillus ruminis strain: ATCC25644 for biotransformation under anaerobic condition. The drug concentrations were measured over 6 timepoints collected between 0 and 12 hours of incubation by liquid-chromatography-coupled mass spectrometry (LC–MS); design: dose 5 uM, timepoint 0, 1.5, 3, 6, 9, 12 hours; conditions: ligilactobacillus ruminis, 5 µM
[10] = The drug is tested on Roseburia intestinalis strain: DSM14610 for biotransformation under anaerobic condition. The drug concentrations were measured over 6 timepoints collected between 0 and 12 hours of incubation by liquid-chromatography-coupled mass spectrometry (LC–MS); design: dose 5 uM, timepoint 0, 1.5, 3, 6, 9, 12 hours; conditions: 5 µM
[11] = The drug is tested on Streptococcus anginosus strain: DSM20563 for biotransformation under anaerobic condition. The drug concentrations were measured over 6 timepoints collected between 0 and 12 hours of incubation by liquid-chromatography-coupled mass spectrometry (LC–MS); design: dose 5 uM, timepoint 0, 1.5, 3, 6, 9, 12 hours; conditions: 5 µM
[12] = The drug is tested on Enterococcus faecalis strain: ATCC29212 for biotransformation under anaerobic condition. The drug concentrations were measured over 6 timepoints collected between 0 and 12 hours of incubation by liquid-chromatography-coupled mass spectrometry (LC–MS); design: dose 5 uM, timepoint 0, 1.5, 3, 6, 9, 12 hours; conditions: 5 µM
[13] = (§2) The drug is tested on Actinomyces naeslundi strain: DSM43013 for biotransformation under microaerobic condition. The drug concentrations were measured over 6 timepoints collected between 0 and 12 hours of incubation by liquid-chromatography-coupled mass spectrometry (LC–MS); design: dose 5 uM, timepoint 0, 1.5, 3, 6, 9, 12 hours; conditions: actinomyces naeslundii, 5 µM
[14] = The drug is tested on Bifidobacterium longum strain: DSM20088 for biotransformation under microaerobic condition. The drug concentrations were measured over 6 timepoints collected between 0 and 12 hours of incubation by liquid-chromatography-coupled mass spectrometry (LC–MS); design: dose 5 uM, timepoint 0, 1.5, 3, 6, 9, 12 hours; conditions: 5 µM
[15] = The drug is tested on Capnocytophaga ochracea strain: DSM7271 for biotransformation under microaerobic condition. The drug concentrations were measured over 6 timepoints collected between 0 and 12 hours of incubation by liquid-chromatography-coupled mass spectrometry (LC–MS); design: dose 5 uM, timepoint 0, 1.5, 3, 6, 9, 12 hours; conditions: 5 µM
[16] = The drug is tested on Gemella morbillorum strain: DSM20572 for biotransformation under microaerobic condition. The drug concentrations were measured over 6 timepoints collected between 0 and 12 hours of incubation by liquid-chromatography-coupled mass spectrometry (LC–MS); design: dose 5 uM, timepoint 0, 1.5, 3, 6, 9, 12 hours; conditions: 5 µM
[17] = The drug is tested on Lactobacillus gasseri strain: DSM20243 for biotransformation under microaerobic condition. The drug concentrations were measured over 6 timepoints collected between 0 and 12 hours of incubation by liquid-chromatography-coupled mass spectrometry (LC–MS); design: dose 5 uM, timepoint 0, 1.5, 3, 6, 9, 12 hours; conditions: 5 µM
[18] = The drug is tested on Streptococcus sanguinis strain: DSM20567 for biotransformation under microaerobic condition. The drug concentrations were measured over 6 timepoints collected between 0 and 12 hours of incubation by liquid-chromatography-coupled mass spectrometry (LC–MS); design: dose 5 uM, timepoint 0, 1.5, 3, 6, 9, 12 hours; conditions: 5 µM
[19] = The drug is tested on Enterococcus faecalis strain: ATCC29212 for biotransformation under microaerobic condition. The drug concentrations were measured over 6 timepoints collected between 0 and 12 hours of incubation by liquid-chromatography-coupled mass spectrometry (LC–MS); design: dose 5 uM, timepoint 0, 1.5, 3, 6, 9, 12 hours; conditions: 5 µM
[20] = as §1, with “the gut metagenome community of A-03 with ENA study accession number: PRJEB31790” for “Bifidobacterium adolescentis strain: DSM20083”, “7” for “6”; design: dose 5 uM, timepoint 0, 0.75, 1.5, 3, 6, 9, 12 hours; conditions: 5 µM
[21] = as §1, with “the gut metagenome community of A-05 with ENA study accession number: PRJEB31790” for “Bifidobacterium adolescentis strain: DSM20083”, “7” for “6”; design: dose 5 uM, timepoint 0, 0.75, 1.5, 3, 6, 9, 12 hours; conditions: 5 µM
[22] = as §1, with “the gut metagenome community of A-09 with ENA study accession number: PRJEB31790” for “Bifidobacterium adolescentis strain: DSM20083”, “7” for “6”; design: dose 5 uM, timepoint 0, 0.75, 1.5, 3, 6, 9, 12 hours; conditions: 5 µM
[23] = as §1, with “the gut metagenome community of A-10 with ENA study accession number: PRJEB31790” for “Bifidobacterium adolescentis strain: DSM20083”, “7” for “6”; design: dose 5 uM, timepoint 0, 0.75, 1.5, 3, 6, 9, 12 hours; conditions: 5 µM
[24] = as §1, with “the gut metagenome community of P-01 with ENA study accession number: PRJEB31790” for “Bifidobacterium adolescentis strain: DSM20083”, “7” for “6”; design: dose 5 uM, timepoint 0, 0.75, 1.5, 3, 6, 9, 12 hours; conditions: 5 µM
[25] = as §1, with “the gut metagenome community of P-04 with ENA study accession number: PRJEB31790” for “Bifidobacterium adolescentis strain: DSM20083”, “7” for “6”; design: dose 5 uM, timepoint 0, 0.75, 1.5, 3, 6, 9, 12 hours; conditions: 5 µM
[26] = as §2, with “the gut metagenome community of A-04 with ENA study accession number: PRJEB31790” for “Actinomyces naeslundi strain: DSM43013”, “7” for “6”; design: dose 5 uM, timepoint 0, 0.75, 1.5, 3, 6, 9, 12 hours; conditions: 5 µM
[27] = as §2, with “the gut metagenome community of A-08 with ENA study accession number: PRJEB31790” for “Actinomyces naeslundi strain: DSM43013”, “7” for “6”; design: dose 5 uM, timepoint 0, 0.75, 1.5, 3, 6, 9, 12 hours; conditions: 5 µM
[28] = as §2, with “the gut metagenome community of A-10 with ENA study accession number: PRJEB31790” for “Actinomyces naeslundi strain: DSM43013”, “7” for “6”; design: dose 5 uM, timepoint 0, 0.75, 1.5, 3, 6, 9, 12 hours; conditions: 5 µM
[29] = as §2, with “the gut metagenome community of T-02 with ENA study accession number: PRJEB31790” for “Actinomyces naeslundi strain: DSM43013”, “7” for “6”; design: dose 5 uM, timepoint 0, 0.75, 1.5, 3, 6, 9, 12 hours; conditions: 5 µM
[30] = as §2, with “the gut metagenome community of T-03 with ENA study accession number: PRJEB31790” for “Actinomyces naeslundi strain: DSM43013”, “7” for “6”; design: dose 5 uM, timepoint 0, 0.75, 1.5, 3, 6, 9, 12 hours; conditions: 5 µM

Bacterial Biotransformation [1]	Bacterial Biotransformation [2]	Bacterial Biotransformation [3]	Bacterial Biotransformation [4]	Bacterial Biotransformation [5]	Bacterial Biotransformation [6]	Bacterial Biotransformation [7]	Bacterial Biotransformation [8]	Bacterial Biotransformation [9]	Bacterial Biotransformation [10]	Bacterial Biotransformation [11]	Bacterial Biotransformation [12]	Bacterial Biotransformation [13]	Bacterial Biotransformation [14]	Bacterial Biotransformation [15]	Bacterial Biotransformation [16]	Bacterial Biotransformation [17]	Bacterial Biotransformation [18]	Bacterial Biotransformation [19]	Bacterial Biotransformation [20]	SMILES	other results
Compound NOT metabolized	Compound NOT metabolized	Compound NOT metabolized	Compound NOT metabolized	Compound NOT metabolized	Compound NOT metabolized	Compound NOT metabolized	Compound NOT metabolized	Compound NOT metabolized	Compound metabolized	Compound NOT metabolized	Compound metabolized	Compound NOT metabolized	Compound NOT metabolized	Compound NOT metabolized	Compound NOT metabolized	Compound NOT metabolized	Compound NOT metabolized	Compound NOT metabolized	Compound metabolized	CO[C@H]1C[C@@H]2CC[C@@H](C)[C@@](O)(O2)C(=O)C(=O)N2CCCC[C@H]2C(=O)O[C@H]([C@H](C)C[C@@H]2CC[C@@H](OCCO)[C@H](OC)C2)CC(=O)[C@H](C)/C=C(\C)[C@@H](O)[C@@H](OC)C(=O)[C@H](C)C[C@H](C)/C=C/C=C/C=C/1C [EVEROLIMUS]	Bacterial Biotransformation [21]: Compound metabolized; Bacterial Biotransformation [22]: Compound metabolized; Bacterial Biotransformation [23]: Compound metabolized; Bacterial Biotransformation [24]: Compound NOT metabolized; Bacterial Biotransformation [25]: Compound NOT metabolized; Bacterial Biotransformation [26]: Compound metabolized; Bacterial Biotransformation [27]: Compound metabolized; Bacterial Biotransformation [28]: Compound NOT metabolized; Bacterial Biotransformation [29]: Compound metabolized; Bacterial Biotransformation [30]: Compound NOT metabolized
Compound NOT metabolized	Compound NOT metabolized	Compound NOT metabolized	Compound NOT metabolized	Compound NOT metabolized	Compound NOT metabolized	Compound NOT metabolized	Compound NOT metabolized	Compound NOT metabolized	Compound metabolized	Compound NOT metabolized	Compound NOT metabolized	Compound NOT metabolized	Compound NOT metabolized	Compound NOT metabolized	Compound NOT metabolized	Compound NOT metabolized	Compound NOT metabolized	Compound NOT metabolized	Compound metabolized	CN(Cc1cnc2nc(N)nc(N)c2n1)c1ccc(C(=O)N[C@@H](CCC(=O)O)C(=O)O)cc1 [METHOTREXATE]	Bacterial Biotransformation [21]: Compound NOT metabolized; Bacterial Biotransformation [22]: Compound metabolized; Bacterial Biotransformation [23]: Compound metabolized; Bacterial Biotransformation [24]: Compound NOT metabolized; Bacterial Biotransformation [25]: Compound NOT metabolized; Bacterial Biotransformation [26]: Compound metabolized; Bacterial Biotransformation [27]: Compound metabolized; Bacterial Biotransformation [28]: Compound metabolized; Bacterial Biotransformation [29]: Compound metabolized; Bacterial Biotransformation [30]: Compound NOT metabolized
Compound NOT metabolized	Compound NOT metabolized	Compound NOT metabolized	Compound NOT metabolized	Compound NOT metabolized	Compound NOT metabolized	Compound NOT metabolized	Compound NOT metabolized	Compound NOT metabolized	Compound NOT metabolized	Compound NOT metabolized	Compound NOT metabolized	Compound NOT metabolized	Compound NOT metabolized	Compound NOT metabolized	Compound NOT metabolized	Compound NOT metabolized	Compound NOT metabolized	Compound NOT metabolized	Compound NOT metabolized	COc1c(C)c2c(c(O)c1C/C=C(\C)CCC(=O)O)C(=O)OC2 [MYCOPHENOLIC ACID]	Bacterial Biotransformation [21]: Compound NOT metabolized; Bacterial Biotransformation [22]: Compound NOT metabolized; Bacterial Biotransformation [23]: Compound NOT metabolized; Bacterial Biotransformation [24]: Compound NOT metabolized; Bacterial Biotransformation [25]: Compound NOT metabolized; Bacterial Biotransformation [26]: Compound NOT metabolized; Bacterial Biotransformation [27]: Compound NOT metabolized; Bacterial Biotransformation [28]: Compound NOT metabolized; Bacterial Biotransformation [29]: Compound NOT metabolized; Bacterial Biotransformation [30]: Compound NOT metabolized
